Among the data in patent US20240051939A1, “BENZOPYRAZOLE INHIBITORS OF SARM1” (Disarm Therapeutics, Inc., priority 2020, published 2024) are IC50 values, retold here.

The assay deals with SARM1 (Homo sapiens (Human), UniProt Q6SZW1). Nature of the assay: ARM-SAM-TIR SARM1 IC50 assay (NADase activity, NAD+ cleavage). Type of assay: biochemical. The note with it: ARM-SAM-TIR lysate 5 μg/mL, 2 h pre-incubation, 5 μM NAD+, RapidFire MS readout. The procedure: This Example describes an assay of ARM-SAM-TIR NADase activity and use of this assay to measure the efficacy of compounds of Formula I to block SARM1 mediated NAD+ cleavage. This assay was optimized in such a way as to characterize the efficacy of the compounds in Formula I to inhibit SARM1 activity and to calculate an IC50 value for each compound. This assay makes use of full length SARM1, which encompasses the ARM, SAM and TIR domains.
NRK1-HEK293T cells were seeded onto 150 cm^2 plates at 20×10^6 cells per plate. The next day, the cells were transfected with 15 μg ARM-SAM-TIR expression plasmid, SEQ ID NO: 1.
The cultures were supplemented with 1 mM NR at time of transfection to minimize toxicity from ARM-SAM-TIR overexpression. […] Protein concentration was determined by the Bicinchoninic (BCA) method and used to normalize lysate concentrations.
The enzymatic assay was performed in a 384-well polypropylene plate in Dulbecco's PBS buffer in a final assay volume of 20 μL. […] The NAD+ and ADPR concentrations were analyzed by a RapidFire High Throughput Mass Spectrometry System (Agilent Technologies, Santa Clara, CA) using an API4000 triple quadrupole mass spectrometer (AB Sciex Framingham, MA).

SARM1, sequence (Q6SZW1 other isoform, or with tags, fused parts or gaps): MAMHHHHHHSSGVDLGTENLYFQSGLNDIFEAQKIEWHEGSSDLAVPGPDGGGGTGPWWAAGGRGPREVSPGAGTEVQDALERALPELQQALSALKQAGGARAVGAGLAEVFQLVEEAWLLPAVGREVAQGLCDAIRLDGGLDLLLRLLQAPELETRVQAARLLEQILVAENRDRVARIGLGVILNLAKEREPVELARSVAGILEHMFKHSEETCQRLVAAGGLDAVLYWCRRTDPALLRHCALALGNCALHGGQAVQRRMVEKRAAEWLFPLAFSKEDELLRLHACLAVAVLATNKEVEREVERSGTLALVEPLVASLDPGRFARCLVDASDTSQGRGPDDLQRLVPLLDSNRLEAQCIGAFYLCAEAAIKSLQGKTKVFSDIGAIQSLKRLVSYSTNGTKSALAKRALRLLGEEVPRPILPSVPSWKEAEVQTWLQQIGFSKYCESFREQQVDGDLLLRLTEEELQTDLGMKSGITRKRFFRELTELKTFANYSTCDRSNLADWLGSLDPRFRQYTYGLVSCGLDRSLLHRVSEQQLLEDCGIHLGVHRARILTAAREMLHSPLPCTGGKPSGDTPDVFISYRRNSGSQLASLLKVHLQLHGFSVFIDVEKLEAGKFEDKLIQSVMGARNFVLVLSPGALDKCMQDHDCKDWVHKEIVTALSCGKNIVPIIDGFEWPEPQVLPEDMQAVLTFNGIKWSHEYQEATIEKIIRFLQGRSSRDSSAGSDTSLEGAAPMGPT

By IC50 is commonly meant the concentration needed to halve the response being measured. A low value points to greater potency. Turning to `Clc1ccc(CCc2n[nH]c3cc(-c4ccncc4)ccc23)cn1` [Compound I-2], the IC50 lay within 101 to 500 nM.
As to `Clc1ccc(CCc2n[nH]c3cc(-c4ccncc4)ccc23)cc1` [Compound I-1], the half-maximal inhibitory concentration (IC50) fell in the range of 101 to 500 nM.
